One experiment addresses T1, NURR-1/RXRα (Homo sapiens, UniProt P19793).
T1 construct: expressed in transfected cells; host or cells: Cos-7 cells
As to the kind of experiment: Transactivation test, NURR-1-Gal4/RXRα, luciferase reporter in Cos-7 cells. The conditions noted are these: for Emax: COS-7, induction level relative to reference XCT0135908 at 2×10^−5 M (=100%), read-out: hNurr1_RXRaFL Emax (%); for EC50: Cos-7 cells, NURR-1-Gal4/RXRα, luciferase reporter, read-out: hNurr1_RXRaFL EC50. It is filed as cell-based.

The target of the next experiment is T2, NURR-1/RXRγ (Homo sapiens, UniProt P48443).
T2 construct: expressed in transfected cells; host or cells: Cos-7 cells
As to the kind of experiment: Transactivation test, NURR-1-Gal4/RXRγ, luciferase reporter in Cos-7 cells. Conditions: for Emax: COS-7, induction level relative to reference XCT0135908 at 2×10^−5 M (=100%), read-out: hNurr1_RXRgFL Emax (%); for EC50: Cos-7 cells, NURR-1-Gal4/RXRγ, luciferase reporter, read-out: hNurr1_RXRgFL EC50. It is filed as cell-based.

Setting [1] is: induction level relative to reference XCT0135908 at 2×10^−5 M (=100%).

Bounds are passed on as bounds.

T1 sequence (P19793 whole entry): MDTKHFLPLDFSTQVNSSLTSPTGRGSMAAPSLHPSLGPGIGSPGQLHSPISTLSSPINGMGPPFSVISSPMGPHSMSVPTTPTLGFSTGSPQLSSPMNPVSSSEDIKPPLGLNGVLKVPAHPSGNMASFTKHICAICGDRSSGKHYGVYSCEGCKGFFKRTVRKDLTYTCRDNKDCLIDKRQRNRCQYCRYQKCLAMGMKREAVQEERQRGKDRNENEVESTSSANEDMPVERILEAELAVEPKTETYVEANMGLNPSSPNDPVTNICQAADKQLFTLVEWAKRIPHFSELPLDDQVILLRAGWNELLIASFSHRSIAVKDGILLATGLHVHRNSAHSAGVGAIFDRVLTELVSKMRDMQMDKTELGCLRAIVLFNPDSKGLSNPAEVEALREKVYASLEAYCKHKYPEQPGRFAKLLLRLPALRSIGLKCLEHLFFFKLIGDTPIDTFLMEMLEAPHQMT
T1 sequence (P43354 whole entry partner): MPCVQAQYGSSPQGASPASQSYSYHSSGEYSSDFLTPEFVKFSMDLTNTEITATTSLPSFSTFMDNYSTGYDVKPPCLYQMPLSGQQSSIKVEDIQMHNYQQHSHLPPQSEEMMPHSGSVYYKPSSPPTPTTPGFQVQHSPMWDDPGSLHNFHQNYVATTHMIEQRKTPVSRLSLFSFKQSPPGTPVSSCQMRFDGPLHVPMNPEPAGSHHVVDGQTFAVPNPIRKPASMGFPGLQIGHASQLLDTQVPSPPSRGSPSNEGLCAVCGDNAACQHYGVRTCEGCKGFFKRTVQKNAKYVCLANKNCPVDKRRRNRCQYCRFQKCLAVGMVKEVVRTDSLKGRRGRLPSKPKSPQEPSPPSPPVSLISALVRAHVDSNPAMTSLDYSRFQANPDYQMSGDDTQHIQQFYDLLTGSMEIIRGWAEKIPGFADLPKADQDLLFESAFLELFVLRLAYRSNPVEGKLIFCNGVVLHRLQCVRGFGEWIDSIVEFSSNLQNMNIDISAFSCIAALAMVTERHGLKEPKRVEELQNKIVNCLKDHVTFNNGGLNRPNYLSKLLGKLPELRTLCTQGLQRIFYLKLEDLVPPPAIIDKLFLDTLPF
T1 sequence (P04386 1-147 partner limits assumed): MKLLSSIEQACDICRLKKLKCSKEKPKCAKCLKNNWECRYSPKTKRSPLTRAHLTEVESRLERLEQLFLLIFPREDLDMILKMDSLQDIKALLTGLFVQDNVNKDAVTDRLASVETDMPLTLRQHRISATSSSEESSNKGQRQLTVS
T2 sequence (P48443 whole entry): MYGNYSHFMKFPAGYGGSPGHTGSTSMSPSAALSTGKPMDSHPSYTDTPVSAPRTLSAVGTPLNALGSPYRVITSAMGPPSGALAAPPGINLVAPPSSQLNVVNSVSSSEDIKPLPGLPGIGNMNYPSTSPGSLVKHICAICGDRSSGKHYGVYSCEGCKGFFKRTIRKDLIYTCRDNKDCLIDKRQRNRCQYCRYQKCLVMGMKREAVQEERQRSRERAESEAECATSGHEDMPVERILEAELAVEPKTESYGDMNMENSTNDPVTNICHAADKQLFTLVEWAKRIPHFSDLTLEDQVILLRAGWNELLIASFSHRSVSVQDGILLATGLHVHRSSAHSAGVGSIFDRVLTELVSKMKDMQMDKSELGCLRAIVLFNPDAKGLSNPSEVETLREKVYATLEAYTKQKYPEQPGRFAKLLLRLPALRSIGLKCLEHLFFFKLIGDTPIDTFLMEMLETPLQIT
T2 sequence (P43354 whole entry partner): as the sequence (P43354 whole entry partner) above
T2 sequence (P04386 1-147 partner limits assumed): as the sequence (P04386 1-147 partner limits assumed) above

Regarding `COCCCNC(=O)C1CN(c2cccc(-n3cc(C)c4cc(C(F)(F)F)ccc43)c2)C1` [Example 172, N-(3-methoxvpypropyl)-1-[3-[3-methyl-5-(trifluoromethyl)indol-1-yl]phenyl]azetidine-3-carboxamide], on NURR-1/RXRα, the Emax (as a rule, the size of the effect at its maximum, as opposed to the concentration needed) was 104% and the EC50 (in general, the concentration at which the effect is half-maximal) was below 1 nM. Besides, on NURR-1/RXRγ, the Emax amounted to 114% and the EC50 worked out at 5 nM.

In the case of `Cc1cn(-c2cccc(N3CC(C(=O)NCCCN(C)C)C3)c2)c2ccc(C(F)(F)F)cc12` [Example 174, N-[3-(dimethylamino)propyl]-1-[3-[3-methyl-5-(trifluoromethyl)indol-1-yl]phenyl]-azetidine-3-carboxamide], the Emax on NURR-1/RXRα was found to be 91%; at NURR-1/RXRγ, 95%. Besides, the EC50 on NURR-1/RXRα was determined as 341 nM; on NURR-1/RXRγ, 620 nM.

Consider `Cc1cn(-c2cccc(N3CC(C(=O)NCCCCN(C)C)C3)c2)c2ccc(C(F)(F)F)cc12` [Example 175, N-[4-(dimethylamino)butyl]-1-[3-[3-methyl-5-(trifluoromethyl)indol-1yl]phenyl]-azatidine-3-carboxamide], for which, at NURR-1/RXRα, the Emax was found to be 77% and the EC50 is 647 nM. Besides, at NURR-1/RXRγ, the Emax worked out at 84% and the EC50 came out at 1260 nM.

On to `Cc1cn(-c2cccc(N3CC(C(=O)NCCN4CCNC4=O)C3)c2)c2ccc(C(F)(F)F)cc12` [Example 176, 1-[3-[3-methyl-5-(trifluoromethyl)indol-1-yl]-phenyl]N-[2-(2-oximidazolidin-1-yl)ethyl]azetidine-3-carboxamide], for which the Emax stood at 113% on NURR-1/RXRα and 130% at NURR-1/RXRγ. Besides, the EC50 on NURR-1/RXRα was 12 nM; at NURR-1/RXRγ, 28 nM.

With `Cc1cn(-c2cccc(N3CC(C(=O)NCC4CC4)C3)c2)c2ccc(C(F)(F)F)cc12` [Example 177, N-(cyclopropylmethyl)-1-[3-[3-methyl-5-(trifluoromethyl)indol-1-yl]phenyl]azetidine-3-carboxamide], at NURR-1/RXRα, the Emax was 104% and the EC50 was 7 nM. Further, at NURR-1/RXRγ, the maximum response (Emax) worked out at 109% and the EC50 came out at 10 nM.

On to `Cc1cn(-c2cccc(N3CC(C(=O)NCC(F)(F)F)C3)c2)c2ccc(C(F)(F)F)cc12` [Example 178, 1-[3-[3-methyl-5-(trifluoromethyl)indol-1-yl]phenyl]-N-(2,2,2-trifluoromethyl)azetidine-3-carboxamide], for which, at NURR-1/RXRα, the Emax was found to be 115% and the EC50 was 14 nM. Moreover, on NURR-1/RXRγ, the Emax was determined as 133% and the EC50 was 146 nM.

`Cc1cn(-c2cccc(N3CC(C(=O)NC4CCC4)C3)c2)c2ccc(C(F)(F)F)cc12` [Example 179]: the Emax was 119% at NURR-1/RXRα and 144% on NURR-1/RXRγ. The figures for the EC50 on NURR-1/RXRα and at NURR-1/RXRγ were 8 nM and 12 nM, respectively.

For `Cc1cn(-c2cccc(N3CC(C(=O)NC4CCOCC4)C3)c2)c2ccc(C(F)(F)F)cc12` [Example 180, 1-[3-[3-methyl-5-(trifluorometnyl)indol-1-yl]phenyl]-N-tetrahydropyran-4-yl-azetidine-3-carboxamide], on NURR-1/RXRα, the Emax came to 103% and the EC50 stood at 54 nM. On NURR-1/RXRγ, the Emax was found to be 110% and the EC50 was 86 nM.

As for `Cc1cn(-c2cccc(N3CC(C(=O)NCCN4CCN(C)CC4)C3)c2)c2ccc(C(F)(F)F)cc12` [Example 181, N-[2-(4-methylipiperazin-1-yl)ethyl]-1-[3-[3-methyl-5-(trifluoromethyl)indol-1-yl]phenyl]azetidine-3-carboxamide], at NURR-1/RXRα, the Emax is 103% and the EC50 stood at 168 nM. Also, at NURR-1/RXRγ, the Emax stood at 96% and the EC50 turned out to be 293 nM.

For `CC(=O)NCCCNC(=O)C1CN(c2cccc(-n3cc(C)c4cc(C(F)(F)F)ccc43)c2)C1` [Example 182, N-(3-acetamidopropyl)-1-[3-[3-methyl-5-(trifluoromethyl)indol-1-yl]phenyl]azetidine-3-carboxylate], the Emax on NURR-1/RXRα is 98%; at NURR-1/RXRγ, 111%. Besides, the EC50 amounted to 7 nM on NURR-1/RXRα and 14 nM at NURR-1/RXRγ.

`Cc1cn(-c2cccc(N3CC(C(=O)NC4CCC(F)(F)CC4)C3)c2)c2ccc(C(F)(F)F)cc12` [Example 183, N-(4,4-difluorocyclophexyl)-1-[3-[3-5-(trifluoromethyl)indol-1-yl]phenyl]-azetidine-3-carboxamide]: the Emax at NURR-1/RXRα is 108%; on NURR-1/RXRγ, 127%. The EC50 was determined as 92 nM on NURR-1/RXRα and 316 nM on NURR-1/RXRγ.

As for `CCCc1ccc(C(C)C)cc1-c1cccc(N2CC(C(=O)O)C2)c1` [Example 195, piperazin-1-ium-1-[3-(5-isopropyl-2-propylphenyl)phenyl]azetidine-3-carboxylate], on NURR-1/RXRα, the Emax was determined as 105% and the EC50 turned out to be 7 nM. In addition, the EC50 at NURR-1/RXRγ was 116 nM.

Regarding `CN1CC2(CCC2)Oc2cc(C(F)(F)F)cc(-c3cccc(N4CC(C(=O)O)C4)c3)c21` [Example 203, sodium 1-[3-[4-methul-7-(trifluoromethyl)spiro[3H-1,4-benzoxazine-2,1′-cyclobutane]-5-yl]phenyl]azetidine-3-carboxylate], the values for the Emax at NURR-1/RXRα and at NURR-1/RXRγ were 80% and 63%, respectively. The half-maximal effective concentration (EC50) was determined as 0.69 nM on NURR-1/RXRα and 4 nM at NURR-1/RXRγ.

In the case of `CCc1cc2c(c(-c3cccc(N4CC(C(=O)O)C4)c3)c1)NCC(C)(C)O2` [Example 207, tert-butylammonium 1-[3-(7-ethyl-2,2-dimethyl-3,4-dihydro-1,4-benzoxazin-5-yl)phenyl]azetidine-3-carboxylate], on NURR-1/RXRα, the Emax stood at 112% and the EC50 turned out to be 15 nM. Further, at NURR-1/RXRγ, the Emax was found to be 103% and the concentration giving a half-maximal response (EC50) was 16 nM.

In the case of `CC1(C)CN(c2cccc(N3CC(C(=O)O)C3)c2)c2ccc(Br)cc2O1` [Example 222, sodium 1-[3-(7-bromo-2,2-dimethyl-3H-1,4-benzoxazin-4-yl)phenyl]azetidine-3-carbxoylate], on NURR-1/RXRα, the Emax stood at 115% and the EC50 came out at 19 nM. Also, at NURR-1/RXRγ, the Emax stood at 94% and the EC50 amounted to 27 nM.

For the compound `CC(C)Cc1ccc2c(c1)OC(C)(C)CN2c1cccc(N2CC(C(=O)O)C2)c1` [Example 230, 1-[3-(7-isobutyl-2,2-dimethyl-3H-1,4-benzoxazin-4yl)phenyl]azetidine-3-carboxylic acid], at NURR-1/RXRα, the Emax is 62% and the EC50 is 535 nM. In addition, on NURR-1/RXRγ, the Emax stood at 85% and the EC50 worked out at 1000 nM.

Consider `CC(C)Cc1ccc2c(c1)OC(C)(C)CN2c1cccc(N2CC(C(=O)O)C2)c1` [Example 231, tert-butylammonium 1-[3-(7-isobutyl-2,2-dimethyl-3H-1,4-benzoxazin-4yl)phenyl]azetidine-3-carboxylate], for which the figures for the half-maximal effective concentration (EC50) at NURR-1/RXRα and on NURR-1/RXRγ were 318 nM and 792 nM, respectively. Also, the “hNurr1_RXRaFL Emax (%)” value on NURR-1/RXRα (setting [1]) worked out at 58%. The “hNurr1_RXRgFL Emax (%)” value at NURR-1/RXRγ (setting [1]) turned out to be 66%.

Take `O=C(O)C1CN(c2cccc(N3CCOc4cc(C(F)(F)F)ncc43)c2)C1` [Example 240, sodium 1-[3-[7-(trifluoromethyl)-2,3-dihydropurido[4,3][1,4]oxazin-4-yl]phenyl]azetidine-3-carboxylate]: at NURR-1/RXRα, the Emax is 98% and the EC50 was 1830 nM. On NURR-1/RXRγ, the Emax was determined as 83% and the half-maximal effective concentration (EC50) was 3260 nM.

These data come from patent publication US20170066717A1, “NEW PHENYLAZETIDINECARBOXYLATE OR -CARBOXAMIDE COMPOUNDS” (INVENTIVA, priority 2014, published 2017).
